According to ChEMBL document CHEMBL5360558, “Molecular design, synthesis and anticancer activity of new thiopyrano[2,3-d]thiazoles based on 5-hydroxy-1,4-naphthoquinone (juglone)” (Eur J Med Chem, 2023):

What was measured:
IGROV-1 = test: Growth inhibition against human IGROV-1 cells assessed as lethal concentration incubated for 48 hrs by sulforhodamine B spectrophotometric assay; assay type: functional; conditions: read-out: LC50 (the source's name)
PC-3 [1] = test: Growth inhibition against human PC-3 cells assessed as total growth inhibitory concentration incubated for 48 hrs by sulforhodamine B spectrophotometric assay; assay type: functional
CCRF-CEM [2] = test: Growth inhibition of human CCRF-CEM cells incubated for 48 hrs by sulforhodamine B spectrophotometric assay; assay type: functional
SK-OV-3 [3] = test: Growth inhibition against human SK-OV-3 cells assessed as lethal concentration incubated for 48 hrs by sulforhodamine B spectrophotometric assay; assay type: functional; conditions: read-out: LC50 (the source's name)
UO-31 [4] = test: Growth inhibition of human UO-31 cells incubated for 48 hrs by sulforhodamine B spectrophotometric assay; assay type: functional
NCI/ADR-RES [5] = test: Growth inhibition of human NCI/ADR-RES cells incubated for 48 hrs by sulforhodamine B spectrophotometric assay; assay type: functional
SNB-19 = test: Growth inhibition of human SNB-19 cells incubated for 48 hrs by sulforhodamine B spectrophotometric assay; assay type: functional
HCT-116 = test: Growth inhibition of human HCT-116 cells incubated for 48 hrs by sulforhodamine B spectrophotometric assay; assay type: functional
HL-60 = test: Growth inhibition of human HL-60 cells incubated for 48 hrs by sulforhodamine B spectrophotometric assay; assay type: functional
NCI-H522 = test: Growth inhibition of human NCI-H522 cells incubated for 48 hrs by sulforhodamine B spectrophotometric assay; assay type: functional
A549 = test: Growth inhibition against human A549 cells assessed as total growth inhibitory concentration incubated for 48 hrs by sulforhodamine B spectrophotometric assay; assay type: functional
RXF 393 = test: Growth inhibition against human RXF 393 cells assessed as lethal concentration incubated for 48 hrs by sulforhodamine B spectrophotometric assay; assay type: functional; conditions: read-out: LC50 (the source's name)
PC-3 [6] = test: Growth inhibition against human PC-3 cells assessed as lethal concentration incubated for 48 hrs by sulforhodamine B spectrophotometric assay; assay type: functional; conditions: read-out: LC50 (the source's name)
[7] = Acute toxicity in C57BL/6 mouse assessed as neutrophil count at 20 mg/kg,ip administration and observed after 22 days; assay type: organism-based; conditions: in vivo, 528 h, time 22 day
Malme-3M [8] = test: Anticancer activity against human Malme-3M cells assessed as cell growth at 10 uM incubated for 48 hrs by sulforhodamine B assay; assay type: functional; conditions: read-out: Activity
CCRF-CEM [9] = test: Induction of cell cycle arrest in human CCRF-CEM cells assessed as accumulation of cells at G2/M phase at 20.7 uM incubated for 24 hrs by propidium iodide staining based flow cytometry analysis (reference value: 20.24 +/- 0.25%); assay type: functional
CAKI-1 = test: Growth inhibition of human CAKI-1 cells incubated for 48 hrs by sulforhodamine B spectrophotometric assay; assay type: functional
MDA-MB-231 = test: Induction of apoptosis in human MDA-MB-231 cells at 10 uM incubated for 24 hrs by Annexin-V-FITC/propidium iodide staining based flow cytometry analysis (reference value: 8.9%); assay type: functional
M14 = test: Anticancer activity against human M14 cells assessed as cell growth at 10 uM incubated for 48 hrs by sulforhodamine B assay; assay type: functional; conditions: read-out: Activity
KB 3-1 = test: Cytotoxicity against human KB 3-1 cells assessed as cell growth inhibition incubated for 72 hrs by MTT assay; assay type: functional, cell-based; conditions: KB 3-1, 72 h
HOP-92 = test: Growth inhibition against human HOP-92 cells assessed as lethal concentration incubated for 48 hrs by sulforhodamine B spectrophotometric assay; assay type: functional; conditions: read-out: LC50 (the source's name)
NCI-H460 [10] = test: Growth inhibition of human NCI-H460 cells incubated for 48 hrs by sulforhodamine B spectrophotometric assay; assay type: functional
K562 = test: Growth inhibition against human K562 cells assessed as lethal concentration incubated for 48 hrs by sulforhodamine B spectrophotometric assay; assay type: functional; conditions: read-out: LC50 (the source's name)
[11] = GSH reactivity of compound at pH 7.4 phosphate buffer assessed as GSH-adduct formation at 1 mM incubated for 1 hr by spectrophotometric analysis; assay type: physicochemical; conditions: pH 7.4, 1 h, 1000 µM
OVCAR-8 = test: Growth inhibition of human OVCAR-8 cells incubated for 48 hrs by sulforhodamine B spectrophotometric assay; assay type: functional
[12] = Acute toxicity in C57BL/6 mouse assessed as ratio of kidney weight to body weight at 20 mg/kg,ip administration and observed after 22 days (reference value: 1.39 +/- 0.09); assay type: organism-based; conditions: in vivo, 528 h, time 22 day
CCRF-CEM [13] = test: Induction of cell cycle arrest in human CCRF-CEM cells assessed as DNA synthesis at 20.7 uM incubated for 2.5 hrs by BrdU incorporation based flow cytometry analysis (reference value: 42.4 +/- 0.66%); assay type: functional
SK-OV-3 [14] = test: Growth inhibition of human SK-OV-3 cells incubated for 48 hrs by sulforhodamine B spectrophotometric assay; assay type: functional
NCI/ADR-RES [15] = test: Growth inhibition against human NCI-ADR-RES cells assessed as total growth inhibitory concentration incubated for 48 hrs by sulforhodamine B spectrophotometric assay; assay type: functional
TK-10 [16] = test: Growth inhibition against human TK-10 cells assessed as lethal concentration incubated for 48 hrs by sulforhodamine B spectrophotometric assay; assay type: functional; conditions: read-out: LC50 (the source's name)
TK-10 [17] = test: Growth inhibition of human TK-10 cells incubated for 48 hrs by sulforhodamine B spectrophotometric assay; assay type: functional
EKVX = test: Growth inhibition against human EKVX cells assessed as lethal concentration incubated for 48 hrs by sulforhodamine B spectrophotometric assay; assay type: functional; conditions: read-out: LC50 (the source's name)
[18] = Cytotoxicity against mouse J774.2 cells assessed as cell growth inhibition incubated for 72 hrs by MTT assay; assay type: toxicity, cell-based
UO-31 [19] = test: Growth inhibition against human UO-31 cells assessed as total growth inhibitory concentration incubated for 48 hrs by sulforhodamine B spectrophotometric assay; assay type: functional
Malme-3M [20] = test: Growth inhibition against human Malme-3M cells assessed as total growth inhibitory concentration incubated for 48 hrs by sulforhodamine B spectrophotometric assay; assay type: functional
HCT-15 = test: Growth inhibition against human HCT-15 cells assessed as lethal concentration incubated for 48 hrs by sulforhodamine B spectrophotometric assay; assay type: functional; conditions: read-out: LC50 (the source's name)
HT-29 = test: Growth inhibition against human HT-29 cells assessed as total growth inhibitory concentration incubated for 48 hrs by sulforhodamine B spectrophotometric assay; assay type: functional
[21] = Acute toxicity in C57BL/6 mouse assessed as ratio of neutrophil to lymphocyte count at 20 mg/kg,ip administration and observed after 22 days; assay type: organism-based; conditions: in vivo, 528 h, time 22 day
SW-620 = test: Growth inhibition against human SW620 cells assessed as total growth inhibitory concentration incubated for 48 hrs by sulforhodamine B spectrophotometric assay; assay type: functional
MDA-MB-435 = test: Growth inhibition against human MDA-MB-435 cells assessed as total growth inhibitory concentration incubated for 48 hrs by sulforhodamine B spectrophotometric assay; assay type: functional
786-0 = test: Growth inhibition against human 786-0 cells assessed as lethal concentration incubated for 48 hrs by sulforhodamine B spectrophotometric assay; assay type: functional; conditions: read-out: LC50 (the source's name)
U-251 = test: Growth inhibition of human U-251 cells incubated for 48 hrs by sulforhodamine B spectrophotometric assay; assay type: functional
HCC 2998 = test: Growth inhibition against human HCC 2998 cells assessed as lethal concentration incubated for 48 hrs by sulforhodamine B spectrophotometric assay; assay type: functional; conditions: read-out: LC50 (the source's name)
NCI-H322M = test: Anticancer activity against human NCI-H322M cells assessed as cell growth at 10 uM incubated for 48 hrs by sulforhodamine B assay; assay type: functional; conditions: read-out: Activity
NCI-H460 [22] = test: Growth inhibition against human NCI-H460 cells assessed as lethal concentration incubated for 48 hrs by sulforhodamine B spectrophotometric assay; assay type: functional; conditions: read-out: LC50 (the source's name)

Molecule O=C1C2=C(C(=O)c3c(O)cccc31)C(c1ccco1)c1sc(=O)[nH]c1S2 (stereo not given) has a CC50 (IGROV-1) of 38 µM, a TGI (PC-3 [1]) of 21.6 µM and a GI50 (CCRF-CEM [2]) of 3.29 µM. For the same molecule, the CC50 (SK-OV-3 [3]) was 56.5 µM, the GI50 (UO-31 [4]) was 2560 nM and the GI50 (NCI/ADR-RES [5]) was 3.02 µM. The GI50 (SNB-19) was 2600 nM, the GI50 (HCT-116) was 2370 nM and the GI50 (HL-60) was 1820 nM. For the same molecule, the GI50 (NCI-H522) was 2310 nM, the TGI (A549) was 3.63 µM and the CC50 (RXF 393) was 20.1 µM. For the same molecule, the CC50 (PC-3 [6]) was > 100 µM, the Activity [7] was 31.21% and the growth at 10 µM (Malme-3M [8]) was -92.3%. It also gave an Activity (CCRF-CEM [9]) of 22.09%, a GI50 (CAKI-1) of 3.29 µM and an Activity (MDA-MB-231) of 28.2%. It also gave a growth at 10 µM (M14) of -97.6%, an IC50 (KB 3-1) of 750 nM and a CC50 (HOP-92) of 32.5 µM. For the same molecule, the GI50 (NCI-H460 [10]) was 1540 nM, the CC50 (K562) was > 100 µM and the Activity [11] was “Active”. The GI50 (OVCAR-8) was 2460 nM, the Ratio [12] was 1.28 and the Activity (CCRF-CEM [13]) was 0.9%. The GI50 (SK-OV-3 [14]) was 15.5 µM, the TGI (NCI/ADR-RES [15]) was 12.3 µM and the CC50 (TK-10 [16]) was 56.4 µM. The GI50 (TK-10 [17]) was 12.3 µM, the CC50 (EKVX) was 44.3 µM and the IC50 at 72 h [18] was 2590 nM. For the same molecule, the TGI (UO-31 [19]) was 13.5 µM, the TGI (Malme-3M [20]) was 2000 nM and the CC50 (HCT-15) was 8.59 µM. It also gave a TGI (HT-29) of 9.25 µM, a Ratio [21] of 0.465 and a TGI (SW-620) of 10.5 µM. The TGI (MDA-MB-435) was 2470 nM, the CC50 (786-0) was 71.2 µM and the GI50 (U-251) was 3.07 µM. For the same molecule, the CC50 (HCC 2998) was 18.4 µM, the growth at 10 µM (NCI-H322M) was -97.7% and the CC50 (NCI-H460 [22]) was 7.84 µM.
